Data: PubChem BioAssay (NCI)
Values joined by “and” are separate entries in the source; they are usually repeats but may differ in a detail not shown here. Identical values can stand only once.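 1) Cells in 96-well plates. 2) Compound, 48 h, 5 concentrations. 3) Linear interpolation between surrounding doses. 4) Unreached endpoint = highest concentration. GI50 marks 50% less growth. TGI marks complete inhibition of growth.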

Columns and labels:
Test in all cases: NCI tumour cell line growth inhibition, 48 h
786-0 renal = test system: 786-0 renal
A498 renal = test system: A498 renal
A549 NSCLC = test system: A549 NSCLC
ACHN renal = test system: ACHN renal
BT-549 breast = test system: BT-549 breast
CAKI-1 renal = test system: CAKI-1 renal
CCRF-CEM leukemia = test system: CCRF-CEM leukemia
DU-145 prostate = test system: DU-145 prostate
EKVX NSCLC = test system: EKVX NSCLC
HCC-2998 colon = test system: HCC-2998 colon
HCT-116 colon = test system: HCT-116 colon
HCT-15 colon = test system: HCT-15 colon
HL-60(TB) leukemia = test system: HL-60(TB) leukemia
HOP-62 NSCLC = test system: HOP-62 NSCLC
HOP-92 NSCLC = test system: HOP-92 NSCLC
HS 578T breast = test system: HS 578T breast
HT29 colon = test system: HT29 colon
IGROV1 ovarian = test system: IGROV1 ovarian
K-562 leukemia = test system: K-562 leukemia
KM12 colon = test system: KM12 colon
LOX IMVI melanoma = test system: LOX IMVI melanoma
M14 melanoma = test system: M14 melanoma
MALME-3M melanoma = test system: MALME-3M melanoma
MDA-MB-231 breast = test system: MDA-MB-231 breast
MDA-MB-435 = test system: MDA-MB-435
MDA-N = test system: MDA-N
MOLT-4 leukemia = test system: MOLT-4 leukemia
NCI-H226 lung = test system: NCI-H226 lung
NCI-H23 lung = test system: NCI-H23 lung
NCI-H460 lung = test system: NCI-H460 lung
NCI-H522 lung = test system: NCI-H522 lung
NCI/ADR-RES ovarian = test system: NCI/ADR-RES ovarian
OVCAR-5 ovarian = test system: OVCAR-5 ovarian
OVCAR-8 ovarian = test system: OVCAR-8 ovarian
PC-3 prostate = test system: PC-3 prostate
RPMI-8226 leukemia = test system: RPMI-8226 leukemia
SF-268 CNS = test system: SF-268 CNS
SF-295 CNS = test system: SF-295 CNS
SF-539 CNS = test system: SF-539 CNS
SK-MEL-2 melanoma = test system: SK-MEL-2 melanoma
SK-MEL-28 melanoma = test system: SK-MEL-28 melanoma
SK-MEL-5 melanoma = test system: SK-MEL-5 melanoma
SN12C renal = test system: SN12C renal
SNB-19 CNS = test system: SNB-19 CNS
SNB-75 CNS = test system: SNB-75 CNS
SR leukemia = test system: SR leukemia
SW-620 colon = test system: SW-620 colon
T-47D breast = test system: T-47D breast
TK-10 renal = test system: TK-10 renal
U251 CNS = test system: U251 CNS
UACC-62 melanoma = test system: UACC-62 melanoma
UO-31 renal = test system: UO-31 renal
COLO 205 colon = test system: COLO 205 colon
MCF7 breast = test system: MCF7 breast
OVCAR-3 ovarian = test system: OVCAR-3 ovarian
OVCAR-4 ovarian = test system: OVCAR-4 ovarian
RXF 393 renal = test system: RXF 393 renal
SK-OV-3 ovarian = test system: SK-OV-3 ovarian
UACC-257 melanoma = test system: UACC-257 melanoma

## Cc1cc(N)c2ccccc2[n+]1CCCCCCCCCC[n+]1c(C)cc(N)c2ccccc21
786-0 renal
  GI50: 0.512 µM and 3.75 µM
  TGI: 10.9 µM and 21.3 µM and 25.5 µM
A498 renal
  GI50: 0.0691 µM
A549 NSCLC
  GI50: 0.116 µM
  TGI: 6.88 µM and 50 µM
ACHN renal
  TGI: > 50 µM and 7.15 µM and 17.9 µM
BT-549 breast
  GI50: 0.304 µM and 1.5 µM
  TGI: 1.57 µM and 3.29 µM and 5.32 µM
CAKI-1 renal
  GI50: 1.37 µM and 3.27 µM
  TGI: > 50 µM and 27.7 µM and 18.6 µM
CCRF-CEM leukemia
  GI50: 0.635 µM and 1.3 µM
  TGI: 3.53 µM and 16.2 µM and 6.15 µM
DU-145 prostate
  GI50: 0.23 µM
  TGI: 2.59 µM and 20.2 µM
EKVX NSCLC
  TGI: > 50 µM and 49.4 µM and 26.9 µM
HCC-2998 colon
  GI50: 0.253 µM
  TGI: 4.52 µM and 2.76 µM and 9.8 µM
HCT-116 colon
  GI50: 0.28 µM and 2 µM
HCT-15 colon
  GI50: 1.25 µM and 3.67 µM
  TGI: > 50 µM and 25.9 µM and 81.9 µM
HL-60(TB) leukemia
  GI50: 0.142 µM
  TGI: 0.545 µM and 2.14 µM
HOP-62 NSCLC
  GI50: 0.201 µM
  TGI: 2.8 µM and 9.51 µM
HOP-92 NSCLC
  GI50: 0.168 µM
HS 578T breast
  GI50: 0.303 µM
  TGI: > 19.2 µM and 29.6 µM
HT29 colon
  GI50: 0.223 µM and 1.55 µM
  TGI: 1.51 µM and 5.47 µM and 4.62 µM
IGROV1 ovarian
  GI50: 0.538 µM and 2.17 µM
K-562 leukemia
  GI50: 0.137 µM
  TGI: 2.22 µM and 3.84 µM and 12.4 µM
KM12 colon
  GI50: 0.145 µM
  TGI: 0.65 µM and 1.49 µM
LOX IMVI melanoma
  TGI: 2.29 µM
M14 melanoma
  GI50: 0.584 µM
  TGI: 3.25 µM and 18.5 µM and 7.33 µM
MALME-3M melanoma
  GI50: 0.163 µM and 1.35 µM
MDA-MB-231 breast
  GI50: 0.505 µM
  TGI: > 11.5 µM and 12.7 µM
MDA-MB-435
  GI50: 0.245 µM
  TGI: 0.926 µM and 3.18 µM
MDA-N
  GI50: 2.13 µM
  TGI: 6.08 µM and 6.72 µM
MOLT-4 leukemia
  GI50: 0.549 µM and 1.41 µM
  TGI: 1.38 µM and 3.23 µM and 4.08 µM
NCI-H226 lung
  GI50: 0.576 µM and 1.11 µM
  TGI: > 50 µM and 22.7 µM and 5.29 µM
NCI-H23 lung
  GI50: 0.236 µM and 0.484 µM
  TGI: > 12.4 µM and 3.96 µM and 3.89 µM
NCI-H460 lung
  GI50: 0.121 µM
  TGI: 0.516 µM and 1.55 µM
NCI-H522 lung
  GI50: 1.38 µM
  TGI: 4.01 µM and 4.43 µM
NCI/ADR-RES ovarian
  GI50: 5.42 µM and 13.2 µM
  TGI: > 38.5 µM and 48.5 µM and 42.9 µM
OVCAR-5 ovarian
  TGI: 25.5 µM and 7.98 µM
OVCAR-8 ovarian
  GI50: 0.218 µM
  TGI: 1.99 µM and 13.8 µM
PC-3 prostate
  GI50: 0.245 µM and 0.744 µM
  TGI: 4.63 µM and 15.8 µM and 11.1 µM
RPMI-8226 leukemia
  GI50: 0.0435 µM and 0.324 µM
  TGI: 0.859 µM and 2.61 µM and 2.71 µM
SF-268 CNS
  TGI: 3.49 µM and 10.3 µM and 32.5 µM
SF-295 CNS
  GI50: 0.189 µM
  TGI: 1.84 µM and 11.9 µM and 3.61 µM
SF-539 CNS
  GI50: 0.241 µM and 1.56 µM
  TGI: 1.44 µM and 9.96 µM and 3.8 µM
SK-MEL-2 melanoma
  GI50: 0.674 µM and 1.4 µM
  TGI: 1.93 µM and 9.03 µM and 3.78 µM
SK-MEL-28 melanoma
  GI50: 0.277 µM and 1.18 µM
  TGI: 1.33 µM and 5.09 µM and 3.28 µM
SK-MEL-5 melanoma
  GI50: 0.0679 µM and 0.367 µM
SN12C renal
  GI50: 0.159 µM
  TGI: > 14 µM and 7.39 µM and 16.7 µM
SNB-19 CNS
  TGI: > 26.1 µM and 2.96 µM and 16.2 µM
SNB-75 CNS
  GI50: 0.212 µM and 0.249 µM
  TGI: 6.77 µM and 6.72 µM and 11 µM
SR leukemia
  GI50: 0.151 µM and 1.07 µM
  TGI: 0.656 µM and 3.95 µM and 4.37 µM
SW-620 colon
  GI50: 0.508 µM
  TGI: > 50 µM and 33.9 µM and > 100 µM
T-47D breast
  GI50: 0.0959 µM
TK-10 renal
  GI50: 0.684 µM and 3.13 µM
  TGI: 7.63 µM and 15.5 µM and 24.3 µM
U251 CNS
  GI50: 0.145 µM and 1.15 µM
  TGI: 1.05 µM and 1.94 µM and 6.52 µM
UACC-62 melanoma
  GI50: 0.189 µM
UO-31 renal
  GI50: 0.954 µM and 2.84 µM
  TGI: > 50 µM and 12.9 µM and 14 µM

## O=C1N2CCc3c([nH]c4ccccc34)C23CC2CCCC12S3 (stereo not given)
786-0 renal
  TGI: > 50 µM
A498 renal
  TGI: > 50 µM
A549 NSCLC
  TGI: > 50 µM
ACHN renal
  TGI: > 50 µM
BT-549 breast
  TGI: > 50 µM
CAKI-1 renal
  TGI: > 50 µM
COLO 205 colon
  TGI: > 50 µM
DU-145 prostate
  TGI: > 50 µM
EKVX NSCLC
  TGI: > 50 µM
HCT-116 colon
  TGI: > 50 µM
HCT-15 colon
  TGI: > 50 µM
HL-60(TB) leukemia
  TGI: > 50 µM
HOP-62 NSCLC
  TGI: > 50 µM
HOP-92 NSCLC
  TGI: > 50 µM
HS 578T breast
  TGI: > 50 µM
HT29 colon
  TGI: > 50 µM
IGROV1 ovarian
  TGI: > 50 µM
K-562 leukemia
  TGI: > 50 µM
KM12 colon
  TGI: > 50 µM
LOX IMVI melanoma
  TGI: > 50 µM
M14 melanoma
  TGI: > 50 µM
MALME-3M melanoma
  TGI: > 50 µM
MCF7 breast
  TGI: > 50 µM
MDA-MB-231 breast
  TGI: > 50 µM
MDA-MB-435
  TGI: > 50 µM
MDA-N
  TGI: > 50 µM
MOLT-4 leukemia
  TGI: > 50 µM
NCI-H226 lung
  TGI: > 50 µM
NCI-H23 lung
  TGI: > 50 µM
NCI-H522 lung
  TGI: > 50 µM
NCI/ADR-RES ovarian
  TGI: 43.9 µM
OVCAR-3 ovarian
  TGI: > 50 µM
OVCAR-4 ovarian
  TGI: > 50 µM
OVCAR-5 ovarian
  TGI: > 50 µM
OVCAR-8 ovarian
  TGI: > 50 µM
PC-3 prostate
  TGI: > 50 µM
RPMI-8226 leukemia
  TGI: > 50 µM
RXF 393 renal
  TGI: > 50 µM
SF-268 CNS
  TGI: > 50 µM
SF-295 CNS
  TGI: > 50 µM
SF-539 CNS
  TGI: > 50 µM
SK-MEL-2 melanoma
  TGI: > 50 µM
SK-MEL-28 melanoma
  TGI: > 50 µM
SK-MEL-5 melanoma
  TGI: > 50 µM
SK-OV-3 ovarian
  TGI: > 50 µM
SN12C renal
  TGI: > 50 µM
SNB-19 CNS
  TGI: > 50 µM
SR leukemia
  TGI: > 50 µM
SW-620 colon
  TGI: > 50 µM
T-47D breast
  TGI: > 50 µM
TK-10 renal
  TGI: > 50 µM
U251 CNS
  TGI: > 50 µM
UACC-257 melanoma
  TGI: 47.5 µM
UACC-62 melanoma
  TGI: > 50 µM
UO-31 renal
  TGI: > 50 µM
